This assay concerns the target T1, PARP (Mus musculus, UniProt P11103).
T1 construct: PARP Activity in Cultured Macrophages, Using a Whole-Cell Based Assay; host or cells: murine RAW macrophages
The assay is described as follows: PARP activity in cultured macrophages, whole-cell based assay (3H-NAD+ incorporation after hydrogen peroxide). The settings on record: murine RAW macrophages; compound 1 hour prior to hydrogen peroxide (0.5 mM) for 25 minutes; PARP activity by 3H-NAD+. Here is the method: Effect of Indenoisoquinolinone Analogs on PARP Activity in Cultured Macrophages, Using a Whole-Cell Based Assay
The murine RAW macrophages (ATCC, American Type Culture Collection, Manassas, Va.) were grown in RPMI […] (Invitrogen Life Technologies; Carlsbad, Calif.) medium supplemented with 10% heat-inactivated FBS, 2 mM L-glutamine, and 100 U/ml of penicillin and streptomycin. Cells, between passages 5 and 15, were seeded at a density of 250,000 cells/well in 12 well plates and allowed to grow 48 hours before use. Growth medium was changed on the day of use. Cells were treated with an Indenoisoquinolinone Analog diluted in a growth medium supplemented with 10% fetal bovine serum (FBS) for 1 hour prior to the addition of hydrogen peroxide (0.5 mM) for a further 25 minutes. For the measurement of PARP activity, media was removed and replaced with 0.5 ml of the assay buffer (56 mM HEPES-pH 7.5, 28 mM KCl, 28 mM NaCl, 2 mM MgCl2, 0.01% digitonin, and 0.5 μCi/m1 of ^3H-NAD^+) for 20 minutes. After aspirating the assay buffer, cells were lysed and transferred to eppendorf tubes containing 250 μl of 50% ice-cold trichloroacetic acid (TCA), which were then placed at 4° C. for 4 hours. Samples were centrifuged at 10,000 g for 10 minutes and supernatant removed. The pellets were washed twice with 500 μl of ice-cold 5% w/v TCA. The pellets were then solubilized in 250 μl of NaOH (0.1 M) containing 2% SDS overnight at 37° C. and the PARP activity was then determined by measuring the radioactivity incorporated using a Wallac scintillation counter. The solubilized protein (250 μl) was mixed with 5 ml of scintillation fluid (ScintiSafe Plus, Fisher Scientific) before being counted for 3 minutes. EC50 values were determined from a dose-response curve.

The structures appear in SMILES notation. pEC50: −log10 of the molar value. Structures can show the parent of a compound that is named as a salt.

The pEC50 is the negative decadic logarithm of the EC50, by convention in mol/L.

T1 sequence (P11103 whole entry): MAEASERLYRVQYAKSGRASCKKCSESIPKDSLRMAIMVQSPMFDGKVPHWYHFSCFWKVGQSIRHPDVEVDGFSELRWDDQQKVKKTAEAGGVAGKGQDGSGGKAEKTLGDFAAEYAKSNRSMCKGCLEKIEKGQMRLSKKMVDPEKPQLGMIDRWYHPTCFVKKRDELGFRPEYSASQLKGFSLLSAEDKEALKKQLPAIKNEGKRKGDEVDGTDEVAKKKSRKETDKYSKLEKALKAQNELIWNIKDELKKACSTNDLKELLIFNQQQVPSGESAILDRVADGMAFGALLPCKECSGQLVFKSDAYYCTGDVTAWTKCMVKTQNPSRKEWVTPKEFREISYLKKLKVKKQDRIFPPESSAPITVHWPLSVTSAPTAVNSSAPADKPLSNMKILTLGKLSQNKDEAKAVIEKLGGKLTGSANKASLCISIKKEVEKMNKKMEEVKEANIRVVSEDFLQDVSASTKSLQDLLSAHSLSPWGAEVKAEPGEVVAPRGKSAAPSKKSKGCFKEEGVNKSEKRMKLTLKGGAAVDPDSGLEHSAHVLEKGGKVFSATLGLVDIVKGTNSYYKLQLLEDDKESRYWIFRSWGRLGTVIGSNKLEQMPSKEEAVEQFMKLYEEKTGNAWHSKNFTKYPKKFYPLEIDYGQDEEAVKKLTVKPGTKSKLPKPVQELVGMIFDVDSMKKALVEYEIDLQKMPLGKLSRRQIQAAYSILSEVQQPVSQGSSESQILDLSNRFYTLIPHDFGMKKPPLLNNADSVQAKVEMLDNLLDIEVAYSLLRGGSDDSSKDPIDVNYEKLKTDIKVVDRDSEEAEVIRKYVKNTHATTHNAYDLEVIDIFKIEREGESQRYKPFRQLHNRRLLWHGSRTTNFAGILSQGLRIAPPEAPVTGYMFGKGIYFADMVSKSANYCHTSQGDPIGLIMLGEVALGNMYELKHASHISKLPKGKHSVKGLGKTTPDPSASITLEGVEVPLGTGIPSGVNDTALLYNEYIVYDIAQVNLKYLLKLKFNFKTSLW

The compound `O=c1[nH]c2c(c3ccccc13)Cc1cc(CN3CCN(CC4CC4)CC3)ccc1-2` [Dihydrochloride salt of IIIb-3, 9-[1-(4-Cyclopropylmethylpiperazino)methyl]-5,6-dihydro-5-oxo-11-H-indeno[1,2-c]isoquinoline dihydrochloride] gave a pEC50 of 8.00.

In turn, `O=c1[nH]c2c(c3ccccc13)Cc1cc(CN3CCN(C4CCCCC4)CC3)ccc1-2` [Dihydrochloride salt of IIIb-14, 9-[1-(4-Cyclohexylpiperazino)methyl]-5,6-dihydro-5-oxo-11-H-indeno[1,2-c]isoquinoline dihydrochloride] showed a pEC50 of 7.70.

For `CC(C)N1CCN(Cc2cccc3c2Cc2c-3[nH]c(=O)c3ccccc23)CC1` [IIIa-1, 10-[1-(4-iso-Propylpiperazino)methyl]-5,6-dihydro-5-oxo-11-H-indeno[1,2-c]isoquinoline], the pEC50 is 7.35.

As for `CCCCN1CCN(Cc2cccc3c2Cc2c-3[nH]c(=O)c3ccccc23)CC1` [IIIa-2, 10-[1-(4-Butylpiperazino)methyl]-5,6-dihydro-5-oxo-11-H-indeno[1,2-c]isoquinoline], the pEC50 is 7.60.

The compound `O=c1[nH]c2c(c3ccccc13)Cc1c(CN3CCN(CC4CC4)CC3)cccc1-2` [IIIa-3, 10-[1-(4-Cyclopropylmethylpiperazino)methyl]-5,6-dihydro-5-oxo-11-H-indeno[1,2-c]isoquinoline] showed a pEC50 of 7.70.

Take `O=c1[nH]c2c(c3ccccc13)Cc1c(CNCCCO)cccc1-2` [IIIa-4, 10-[N-1-(3-Hydroxypropyl)aminomethyl]-5,6-dihydro-5-oxo-11-H-indeno[1,2-c]isoquinoline]: the pEC50 was 7.82.

For `O=c1[nH]c2c(c3ccccc13)Cc1c(CNCCN3CCCC3)cccc1-2` [IIIa-5, 10-[N-(2-Pyrollidinoethyl)aminomethyl}-5,6-dihydro-5-oxo-11-H-indeno[1,2-c]isoquinoline], the pEC50 is 7.40.

`O=c1[nH]c2c(c3ccccc13)Cc1c(CN3CCN(c4ncccn4)CC3)cccc1-2` [IIIa-8, 10-{1-[4-(2-Pyrimidyl)piperazino]methyl}-5,6-dihydro-5-oxo-11-H-indeno[1,2-c]isoquinoline]: the pEC50 is 7.12.

As to `O=c1[nH]c2c(c3ccccc13)Cc1c(CN3CC[C@H](F)C3)cccc1-2` [IIIa-11, 10-[S-(3-Fluoropyrrolidino)methyl]-5,6-dihydro-5-oxo-11-H-indeno[1,2-c]isoquinoline], the pEC50 was 7.92.

Turning to `O=c1[nH]c2c(c3ccccc13)Cc1c(CN3CC=CCC3)cccc1-2` [IIIa-12, 10-[(3,4-Dehydropiperidino)methyl]-5,6-dihydro-5-oxo-11-H-indeno[1,2-c]isoquinoline], the pEC50 is 8.15. This pEC50 is 0.23 log units higher than that of the compound before.

As to `CC(C)N1CCN(Cc2ccc3c(c2)Cc2c-3[nH]c(=O)c3ccccc23)CC1` [IIIb-1, 9-[1-(4-iso-Propylpiperazino)methyl]-5,6-dihydro-5-oxo-11-H-indeno[1,2-c]isoquinoline], the pEC50 was 7.70. This pEC50 lies 0.45 log units lower than the previous one.

Turning to `CCCCN1CCN(Cc2ccc3c(c2)Cc2c-3[nH]c(=O)c3ccccc23)CC1` [IIIb-2, 9-[1-(4-Butylpiperazino)methyl]-5,6-dihydro-5-oxo-11-H-indeno[1,2-c]isoquinoline], the pEC50 was 7.60.

For `O=c1[nH]c2c(c3ccccc13)Cc1cc(CN3CCN(c4ncccn4)CC3)ccc1-2` [IIIb-8, 9-{1-[4-(2-Pyrimidyl)piperazino]methyl}-5,6-dihydro-5-oxo-11-H-indeno[1,2-c]isoquinoline], the pEC50 is 7.12.

The compound `O=c1[nH]c2c(c3ccccc13)Cc1cc(CN3CCN(C4CCCC4)CC3)ccc1-2` [IIIb-9, 9-[1-(4-Cyclopentylpiperazino)methyl]-5,6-dihydro-5-oxo-11-H-indeno[1,2-c]isoquinoline dihydrochloride] showed a pEC50 of 7.70.

In turn, `CCOCCN1CCN(Cc2ccc3c(c2)Cc2c-3[nH]c(=O)c3ccccc23)CC1` [IIIb-10, 9-{1-[4-(2-Ethoxyethyl)piperazino]methyl}-5,6-dihydro-5-oxo-11-H-indeno[1,2-c]isoquinoline] gave a pEC50 of 7.12.

Compound `CN1CCCN(Cc2ccc3c(c2)Cc2c-3[nH]c(=O)c3ccccc23)CC1` [IIIb-13, 9-[1-(4-Methylhomopiperazino)methyl]-5,6-dihydro-5-oxo-11-H-indeno[1,2-c]isoquinoline] showed a pEC50 of 7.60.

In turn, `CC(C)(C)OC(=O)N1CCN(Cc2ccc3c(c2)Cc2c-3[nH]c(=O)c3ccccc23)CC1` [IIIb-16, 9-[(4-tert-Butoxycarbonyl-piperazino)methyl]-5,6-dihydro-5-oxo-11-H-indeno[1,2-c]isoquinoline] had a pEC50 of under 7.00.

Regarding `CC(C)(O)CN1CCN(Cc2ccc3c(c2)Cc2c-3[nH]c(=O)c3ccccc23)CC1` [IIIb-18, 9-[4-(2-Hydroxy-2-methyl-propyl-piperazino)methyl]-5,6-dihydro-5-oxo-11-H-indeno[1,2-c]isoquinoline dihydrochloride], the pEC50 was 7.12.

`CN(CCN1CCOCC1)Cc1ccc2c(c1)Cc1c-2[nH]c(=O)c2ccccc12` [IIIb-19] showed a pEC50 of 7.52. This pEC50 lies 0.40 log units higher than the previous one.

The compound `O=c1[nH]c2c(c3ccccc13)Cc1cc(CN3CCCCCC3)ccc1-2` [IIIb-22, 9-(1-Homopiperidinomethyl)-5,6-dihydro-5-oxo-11-H-indeno[1,2-c]isoquinoline] had a pEC50 of under 7.00.

Consider `C[C@@H]1CN(Cc2ccc3c(c2)Cc2c-3[nH]c(=O)c3ccccc23)C[C@H](C)N1` [IIIb-24, 9-[1-(3,5-Dimethylpiperazino)methyl]-5,6-dihydro-5-oxo-11-H-indeno[1,2-c]isoquinoline], for which the pEC50 was under 7.22.

Compound `C=CCN1CCN(Cc2cccc3c2Cc2c-3[nH]c(=O)c3ccccc23)CC1` [IIa-1, 10-[1-(4-Allylpiperazino)methyl]-5,6-dihydro-5-oxo-11-H-indeno[1,2-c]isoquinoline] gave a negative logarithm of the EC50 (pEC50) of 7.70.

For the compound `O=c1[nH]c2c(c3ccccc13)Cc1c(CN3CCC4(CC3)OCCO4)cccc1-2` [IIa-14, 10-[(4,4-Ethylenedioxy-piperidino)methyl]-5,6-dihydro-5-oxo-11-H-indeno[1,2-c]isoquinoline], the pEC50 was 7.52.

`O=c1[nH]c2c(c3ccccc13)Cc1c(CNC3(CO)CCCC3)cccc1-2` [IIa-27, 10-{N-[1-(Hydroxymethyl)cyclopentyl]aminomethyl}-5,6-dihydro-5-oxo-11-H-indeno[1,2-c]isoquinoline] showed a pEC50 of over 8.00.

The compound `C=CCN1CCN(Cc2ccc3c(c2)Cc2c-3[nH]c(=O)c3ccccc23)CC1` [IIb-1, 9-[1-(4-Allylpiperazino)methyl]-5,6-dihydro-5-oxo-11-H-indeno[1,2-c]isoquinoline] had a pEC50 of 7.35.

In turn, `CCC(C)n1c2cc(CN3CCC4(CC3)OCCO4)ccc2c2[nH]c(=O)c3ccccc3c21` (stereo not drawn) [IIb-23] showed a pEC50 of 7.10.

In turn, `N#CCCN1CCN(Cc2ccc3c(c2)Cc2c-3[nH]c(=O)c3ccccc23)CC1` [IIb-66, 9-{1-[4-(2-Cyanoethyl)piperazino]methyl}-5,6-dihydro-5-oxo-11-H-indeno[1,2-c]isoquinoline] showed a pEC50 of 7.35.

Take `CC(C)(C)OC(=O)N1CCC(N(Cc2ccc3c(c2)Cc2c-3[nH]c(=O)c3ccccc23)C2CC2)CC1` [IIb-79, 9-{N-[4-(1-Boc-piperidyl)]-N-cyclopropylaminomethyl}-5,6-dihydro-5-oxo-11-H-indeno[1,2-c]isoquinoline]: the pEC50 was under 7.22.

`CC(C)(C)OC(=O)N1CCC(NCc2ccc3c(c2)Cc2c-3[nH]c(=O)c3ccccc23)CC1` [IIb-92, 9-{N-[4-(1-Boc-piperidyl)]aminomethyl}-5,6-dihydro-5-oxo-11-H-indeno[1,2-c]isoquinoline] had a pEC50 of under 7.22.

As to `CCC(=O)N1CCCN(Cc2ccc3c(c2)Cc2c-3[nH]c(=O)c3ccccc23)CC1` [IIb-118, 9-[(4-Propionyl-homopiperazino)methyl]-5,6-dihydro-5-oxo-11-H-indeno[1,2-c]isoquinoline hydrochloride], the pEC50 is 7.22.

Compound `O=C(CN1CCN(Cc2ccc3c(c2)Cc2c-3[nH]c(=O)c3ccccc23)CC1)N1CCCC1` [IIb-157, 9-{1-[4-(1-Pyrrolidinocarbonylmethyl)piperazino]methyl}-5,6-dihydro-5-oxo-11-H-indeno[1,2-c] isoquinoline] showed a pEC50 of 7.12.

As for `O=C(C1CC1)N1CCN(Cc2ccc3c(c2)Cc2c-3[nH]c(=O)c3ccccc23)CC1` [IIb-170, 9-{1-[4-(Cyclopropylcarbonyl)piperazino]methyl}-5,6-dihydro-5-oxo-11-H-indeno[1,2-c]isoquinoline], the pEC50 is 7.12.

As for `CCOC(CN1CCN(Cc2ccc3c(c2)Cc2c-3[nH]c(=O)c3ccccc23)CC1)OCC` [IIb-196, 9-{1-[4-(2,2-Diethoxyethyl)piperazino]methyl}-5,6-dihydro-5-oxo-11-H-indeno[1,2-c]isoquinoline], the pEC50 was 7.12.

The record behind these values is patent US20100121049A1, “INDENOISOQUINOLINONE ANALOGS AND METHODS OF USE THEREOF” (INOTEK PHARMACEUTICALS CORPORATION, priority 2007, published 2010).
